Like-named read-outs stand apart in the source and are kept apart here.
Key:
[1] = tested on: Moxifloxacin-induced QTc prolongation; experiment: Cardiac response testing: protection against Moxifloxacin-induced QTc prolongation (ECG telemetry); type: in vivo, adult male Hartley guinea pigs; conditions: for inhibition in vivo at 2 mg/kg: Cavia porcellus, po; for Maximal prolongation: QTc; for Onset of protection / Time of maximal protection / Duration of complete protection: single oral 2 mg/kg test compound with oral moxifloxacin; for Duration of complete protection: 6 h recording
Procedure: Efficacy evaluation of the compounds of the present invention involved ECG measurements of adult male Hartley guinea pigs wherein PR, QRS, QT, QTc, JT, RR were recorded. In typical experiments, subcutaneous Kaha TR50B bio potential telemeters were surgically implanted in adult male Hartley guinea pigs weighing 300 to 350 g at enrollment. One lead was sutured to the apex of the heart, while another was sutured to the side of the aorta. The animals were allowed to recover from surgery for 5 days prior to being returned to the testing colony. Following recovery, animals were subjected to two rounds of evaluation as follows:
The animals were then returned to their housing to washout the drug over 5 to 7 days.
ECGs were acquired continuously for 6 hours. The animals were then returned to their housing to washout the drug over 5 to 7 days.
ECG analysis over 5 minutes pre-dose and 6 hours post dose consisted in was automated based on pattern recognition algorithms. The analyzed data were binned into 5-minute segments. Intervals such as PR, QRS, QT, QTc, JT and RR were analyzed automatically using AD Instruments LabChart Pro v8. The accuracy of the measurements was verified manually using digital cursors by randomly selecting 3 to 5 segments at any given time postdose. […] The frequency of arrhythmia was quantified and expressed as “% of ECG time spent in abnormal sinus rhythm over entire duration of the recording”.

AV block = experiment: Drug-induced AV block: intravenous Fingolimod and/or verapamil, without and with oral 14:0 lyso PG (ECG, PR intervals); type: in vivo, guinea pigs
Procedure: To test this hypothesis, guinea pigs were instrumented (subcutaneous ECG leads) and exposed to increasing intravenous doses of Fingolimod and/or verapamil, without and with an oral dose of 14:0 lyso PG. ECG signals were recorded continuously for 2 hours post-dose for the AV blockers Fingolimod and verapamil. PR intervals were measured following the infusion of Fingolimod. Measurements of PR were stopped when the P wave disconnected from the QRS complexes, indicating 3rd degree AV block.
Guinea pigs exposed to an intravenous infusion of Fingolimod alone transitioned to 1st degree AV block as of a dose of 15 μg/kg, which rapidly progressed to a Mobitz Type-1, 2nd-degree AV block at 20 μg/kg, and finally progressed to 3rd degree AV block as of a dose of 23 μg/kg.
The cohort of guinea pigs exposed to verapamil received an i.v. injection of 0.5 mg/kg, followed 60 minutes later by an intravenous infusion of Fingolimod. A 1st-degree AV block appeared at a dose of 7 μg/kg, changed to a Mobitz-Type-1 2nd degree AV block at 10 μg/kg, and transitioned to 3rd-degree dissociation between P waves and QRS complexes as of 45 μg/kg.
The third cohort of animals received an initial oral gavage of 1.0 mg/kg 14:0 lyso PG, followed 60 minutes later by an intravenous dose of 0.5 mg/kg verapamil. Sixty (60) minutes post-verapamil, Fingolimod was infused into the animals as described above. […] A Mobitz-Type-2 AV block appeared in 2 out of 6 animals with P-QRS dissociation observed at a dose of 51 μg/kg in those two animals, and at 300 μg/kg in the rest of the animals in the cohort.

QTc prolongation = QTc prolongation by increasing oral doses of moxifloxacin, without or with concomitant 14:0 lyso PG
[2] = 1 h, read-out: Protection at 1 h post dose
[3] = 2 h, read-out: Protection at 2 h post dose
[4] = 4 h, read-out: Protection at 4 h post dose
[5] = 6 h, read-out: Protection at 6 h post dose
[6] = test compound 2 mg/kg oral given with moxifloxacin
[7] = i.v. verapamil 0.5 mg/kg 60 minutes before Fingolimod infusion
[8] = intravenous infusion of Fingolimod alone
[9] = oral 1.0 mg/kg 14:0 lyso PG, then verapamil 0.5 mg/kg i.v., then Fingolimod infusion

Structure (SMILES) | inhibition in vivo at 2 mg/kg [1, 2] [%] | inhibition in vivo at 2 mg/kg [1, 3] [%] | inhibition in vivo at 2 mg/kg [1, 4] [%] | inhibition in vivo at 2 mg/kg [1, 5] [%] | Maximal prolongation [1, 6] [ms] | Onset of protection [1] [h] | Time of maximal protection [1] [h] | Duration of complete protection [1] [h] | further results
CCCCCCCCCCCCCC(=O)OC[C@H](COP(=O)([O-])OCC(COC(=O)OCC)OC(=O)OCC)OC(=O)CCCCCCCCCCCCC.[Na+] (stereo partly drawn) [Compound 2, Sodium 2,3-bis((ethoxycarbonyl)oxy)propyl ((R)-2,3-bis (tetra decanoyloxy)propyl) Phosphate] | 95 | 88 | 22 | 90 | 4 | 1 | 2 | 4 | –
CCCCCCCCCCCCCC(=O)OC[C@H](COP(=O)([O-])OCC(COC(C)=O)OC(C)=O)OC(=O)CCCCCCCCCCCCC.[Na+] (stereo partly drawn) [Compound 1, Sodium (R)-2,3-bis(tetradecanoyloxy)propyl (2,3-diacetoxypropyl) Phosphate] | 118 | 122 | 100 | 116 | 0 | 1 | 2 | 6 | –
CCCCCCCCCCCCCC(=O)OC[C@H](COP(=O)([O-])OCC(COC(=O)CCC)OC(=O)CCC)OC(=O)CCCCCCCCCCCCC.[Na+] (stereo partly drawn) [Compound 7, Sodium 2,3-bis(butyryloxy)propyl ((R)-2,3-bis(tetradecanoyloxy)propyl) Phosphate] | 83 | 100 | 119 | 147 | 4 | 1 | 2 | 6 | –
CCCCCCCCCCCCCC(=O)OC[C@H](COP(=O)([O-])OCC(COC(=O)CC(C)C)OC(=O)CC(C)C)OC(=O)CCCCCCCCCCCCC.[Na+] (stereo partly drawn) [Compound 8, Sodium 2,3-bis((3-methylbutanoyl)oxy)propyl ((R)-2,3-bis(tetradecanoyloxy)propyl) Phosphate] | 74 | 97 | 100 | 132 | 2 | 1 | 2 | 6 | –
CCCCCCCCCCCCCC(=O)OC[C@H](COP(=O)([O-])OCC(COC(=O)C(C)C)OC(=O)C(C)C)OC(=O)CCCCCCCCCCCCC.[Na+] (stereo partly drawn) [Compound 9, Sodium 2,3-bis(isobutyryloxy)propyl ((R)-2,3-bis(tetradecanoyloxy)propyl) Phosphate] | 91 | 94 | 100 | 116 | 3 | 1 | 2 | 6 | –
COc1c(N2C[C@@H]3CCCN[C@@H]3C2)c(F)cc2c(=O)c(C(=O)O)cn(C3CC3)c12 [Moxifloxacin, reference compound] | – | – | – | – | – | – | – | – | Maximal prolongation ([1]; Moxifloxacin alone, column head 40 mg/kg): 29 ms
CCCCCCCCCCCCCCCCCC1OCC(COP(=O)([O-])OC[C@@H](COC(=O)CCCCCCCCCCCCC)OC(=O)CCCCCCCCCCCCC)O1.[Na+] (stereo partly drawn) [Compound 4, Sodium (R)-2,3-bis (tetradecanoyloxy)propyl ((2-heptadecyl-1,3-dioxolan-4-yl)methyl) Phosphate] | 95 | 88 | 22 | 90 | 8 | 1 | 2 | 4 | –
CCCCCCCCCCCCCCCC1OCC(COP(=O)([O-])OC[C@@H](COC(=O)CCCCCCCCCCCCC)OC(=O)CCCCCCCCCCCCC)O1.[Na+] (stereo partly drawn) [Compound 5, Sodium (R)-2,3-bis(tetradecanoyloxy)propyl ((2-pentadecyl-1,3-dioxolan-4-yl)methyl) Phosphate] | 35 | 113 | 126 | 176 | 0 | 2 | 2 | 6 | –
CCCCCCCCCCCCCC(=O)OC[C@H](COP(=O)([O-])OCC1COC(CCCCC)O1)OC(=O)CCCCCCCCCCCCC.[Na+] (stereo partly drawn) [Compound 6, Sodium (R)-2,3-bis(tetradecanoyloxy)propyl ((2-pentyl-1,3-dioxolan-4-yl)methyl) Phosphate] | 74 | 110 | 115 | 138 | 3 | 1 | 2 | 6 | –
CCCCCCCCCCCCCC(=O)OC[C@H](COP(=O)([O][MgH])OCC(COC(=O)OCC)OC(=O)OCC)OC(=O)CCCCCCCCCCCCC (stereo partly drawn) [Compound 10, magnesium-2,3-bis((ethoxycarbonyl)oxy)propyl((R)-2,3-bis(tetradecanoyloxy)propyl) Phosphate] | – | – | – | – | – | 1 | 2 | 6 | Protection at 1 h post dose ([1]; percent of Moxifloxacin effect, single oral 2 mg/kg test compound concomitantly with oral moxifloxacin 20 mg/kg, 1 h post dose): 83%
CCCCCCCCc1ccc(CCC(N)(CO)CO)cc1 [Fingolimod] | – | – | – | – | – | – | – | – | Fingolimod dose at 1st-degree AV block (AV block; [7]): 0.007 mg/kg; Fingolimod dose at 3rd-degree dissociation between P waves and QRS complexes (AV block; [7]): 0.045 mg/kg; Fingolimod dose at Mobitz-Type-1 2nd degree AV block (AV block; [7]): 0.01 mg/kg; Fingolimod dose at 1st degree AV block (AV block; [8]): 0.015 mg/kg; Fingolimod dose at 3rd degree AV block (AV block; [8]): 0.023 mg/kg; Fingolimod dose at Mobitz Type-1, 2nd-degree AV block (AV block; [8]): 0.02 mg/kg
CCCCCCCCCCCCCC(=O)OC[C@@H](O)COP(=O)(O)OCC(O)CO (mixture of isomers) [14:0 lyso PG, 1-myristoyl-2-hydroxy-sn-glycero-3-phospho-(1′-rac-glycerol)] | – | – | – | – | – | – | – | – | Fingolimod dose at P-QRS dissociation, rest of the animals in the cohort (AV block; [9]): 0.3 mg/kg; animals in which a Mobitz-Type-2 AV block appeared (AV block; [9]): 2 out of 6; Fingolimod dose at P-QRS dissociation, the two animals with Mobitz-Type-2 AV block (AV block; oral 1.0 mg/kg 14:0 lyso PG, then verapamil 0.5 mg/kg i.v., then Fingolimod infusion, 2 out of 6 animals): 0.051 mg/kg; Fingolimod dose at which 1st-degree AV block appeared (AV block; oral gavage 1.0 mg/kg 14:0 lyso PG, 60 min later i.v. verapamil 0.5 mg/kg, 60 min later Fingolimod infusion): 0.2 mg/kg; shift in the QTc-dose response of Moxifloxacin (QTc prolongation; concomitant dose of 14:0 lyso PG): statistically significant right-shift; changes in QTc (QTc prolongation; concomitant dose of 14:0 lyso PG with moxifloxacin): no, or very little, changes in QTc
CCCCCCCCCCCCCC(=O)OC[C@H](COP(=O)([O][MgH])OCC(COC(=O)OCC)OC(=O)OCC)OC(=O)CCCCCCCCCCCCC (stereo partly drawn) [Compound 11, calcium-2,3-bis((ethoxycarbonyl)oxy)propyl ((R)-2,3-bis(tetradecanoyloxy)propyl) Phosphate] | – | – | – | – | – | 1 | 2 | 6 | inhibition in vivo at 2 mg/kg ([1]; 1 h, read-out: Protection at 1 h post dose, percent of Moxifloxacin effect, single oral 2 mg/kg test compound concomitantly with oral moxifloxacin 20 mg/kg, 1 h post dose): 83%; inhibition in vivo at 2 mg/kg ([1]; 2 h, read-out: Protection at 2 h post dose, percent of Moxifloxacin effect, single oral 2 mg/kg test compound concomitantly with oral moxifloxacin 20 mg/kg, 2 h post dose): 94%; inhibition in vivo at 2 mg/kg ([1]; 4 h, read-out: Protection at 4 h post dose, percent of Moxifloxacin effect, single oral 2 mg/kg test compound concomitantly with oral moxifloxacin 20 mg/kg, 4 h post dose): 91%; inhibition in vivo at 2 mg/kg ([1]; 6 h, read-out: Protection at 6 h post dose, percent of Moxifloxacin effect, single oral 2 mg/kg test compound concomitantly with oral moxifloxacin 20 mg/kg, 6 h post dose): 116%; Maximal prolongation ([1]; test compound 2 mg/kg oral given with moxifloxacin, 2 mg/kg): 8 ms
